Laboratory results: patent US20150315241A1, “Antibiotic Peptides” (priority 2007, published 2015)
In brackets after ≈: the same amount, converted by molar mass. Read-outs that look alike come from different tables or passages of the source. Where a SMILES comes first, the peptide text is derived from it. Bridges are numbered along the chain shown (N, C = ends). Roman numbers before positions name the chains, in order. [ ]: non-standard residue; d: D form. Hyp = O=C(O)[C@@H]1C[C@@H](O)CN1; Orn = NCCC[C@H](N)C(=O)O; Dab = NCC[C@H](N)C(=O)O

How the values were obtained:
[1] = in vitro; assay type: in vitro ADME, mouse
Protocol: Serum stability studies were carried out in duplicate as described by Hoffmann et al.. Briefly, 28 μL of an aqueous peptide or peptidomimetics solution (0.5 mg/mL) was added to 0.2 mL freshly pooled 25% mouse serum (Sigma-Aldrich GmbH, Taufkirchen, Germany) in water. The mixtures were incubated at 37° C. under gentle stirring. The proteins were precipitated with 40 μL of 15% aqueous TCA after incubation times of 0, 0.5, 1, 2, 4 and 6 h at 0° C. for 20 min before centrifuged (13500×G) at 4° C. for 5 min. The supernatants of all samples (240 μL) were neutralized with 1 mol/L aqueous NaOH and immediately stored at −20° C. The supernatants were analyzed by RP-HPLC using a linear acetonitrile gradient as described above with 0.1% TFA as ion pair reagent. Collected fractions of the main peaks were further analyzed by tandem mass spectrometry (MALDI-TOF/TOF-MS, 4700 Proteomics Analyzer, Applied Biosystems GmbH, Weiterstadt, Germany) in positive ion reflector mode using α-cyanohydroxycinnamic acid (50% CH3CN in 0.1% aqueous TFA) as matrix to identify the degradation products of the peptides and peptidomimetics, i.e., metabolites, at the different time points. Serum control samples consisted of 200 μL of pooled 25% mouse serum in water, which were also precipitated with 40 μL 15% aqueous TCA, as described before. Peptide reference samples consisted of 28 μL of the peptide stock solution diluted in 0.2 mL water and 40 μL of 15% aqueous trichloroacetic acid (TCA).

[2] = tested on: E. coli 45849; experiment: Growth inhibition assay (MIC); assay type: cell-based, Escherichia coli
Summary of the method: (§1)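 MIC by growth inhibition: overnight NB culture → 5×10^6 CFU/mL in 1% TSB; peptide 2-fold series, final 125 μg/mL to 60 ng/mL; 37° C., 20 hrs; OD595. n=3.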

[3] = tested on: S. typhi S5; assay type: cell-based, Salmonella typhi; conditions: S5, 20 h
Summary of the method: as §1

[4] = tested on: E. coli D31; assay type: cell-based, Escherichia coli; conditions: D31, 20 h
Summary of the method: as §1

[5] = tested on: K. Pneumonia 123132; experiment: Growth inhibition assay (MIC); assay type: cell-based, Klebsiella pneumoniae
Summary of the method: as §1

[6] = tested on: K. Pneumonia K6, ATCC 700603; experiment: Growth inhibition assay (MIC); assay type: cell-based, Klebsiella pneumoniae; conditions: multidrug resistant strain; 1% TSB, 37° C., 20 hrs
Summary of the method: as §1

[7] = tested on: S. enterica subsp. Enterica serovar. typhi G10215 ATCC 700408; assay type: cell-based, Salmonella enterica; conditions: ATCC 700408, 20 h
Summary of the method: as §1

[8] = tested on: R. radiobatter ATCC 15955; experiment: Growth inhibition assay (MIC); assay type: cell-based, Rhizobium radiobacter
Summary of the method: as §1

[9] = tested on: E. coli BL 21 AI; experiment: Growth inhibition assay (MIC); assay type: cell-based, Escherichia coli; conditions: 1% TSB, 37° C., 20 hrs
Summary of the method: (§2)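 Bacteria grown overnight in NB at 37° C. were adjusted to 5×10^6 CFU/mL in 1% TSB and mixed 1:1 with a two-fold peptide series (final 125 μg/mL–60 ng/mL). After 20 hrs at 37° C., A595 was read; triplicates.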

[10] = tested on: M. luteus ATCC 10240; assay type: cell-based, Micrococcus luteus
Summary of the method: as §2

[11] = tested on: E. coli 10233; assay type: cell-based, Escherichia coli
Summary of the method: as §2

[12] = tested on: E. coli 1103; assay type: cell-based, Escherichia coli
Summary of the method: as §2

[13] = tested on: K. pneumonia 681; assay type: cell-based, Klebsiella pneumoniae
Summary of the method: as §2

[14] = tested on: B. subtilis 347; assay type: cell-based, Bactillus subtillis
Summary of the method: as §2

[15] = 25% aqueous mouse serum, 37° C., read-out: Half-life time
[16] = multidrug resistant strain, 1% TSB, 37° C., 20 hrs

| Compound | half-life at 0.061 mg/mL [1, 15] | MIC E. coli 45849 ([2]; 45849, 20 h) | MIC S. typhi S5 [3] | MIC E. coli D31 [4] | MIC K. Pneumonia 123132 ([5]; 20 h) | MIC K. Pneumonia K6, ATCC 700603 [6] | MIC S. enterica subsp. Enterica serovar. typhi G10215 ATCC 700408 [7] | MIC R. radiobatter ATCC 15955 ([8]; ATCC 15955, 20 h) | MIC E. coli BL 21 AI [9] | MIC M. luteus ATCC 10240 ([10]; 1% TSB, 37° C., 20 hrs) | MIC E. coli 10233 ([11]; 1% TSB, 37° C., 20 hrs) | MIC E. coli 1103 ([12]; 1% TSB, 37° C., 20 hrs) | MIC K. pneumonia 681 ([13]; 1% TSB, 37° C., 20 hrs) | MIC B. subtilis 347 ([14]; 1% TSB, 37° C., 20 hrs) | MIC E. coli 45849 [2, 16] | MIC K. Pneumonia 123132 [5, 16] | MIC R. radiobatter ATCC 15955 [8, 16] | MIC E. coli 10233 ([11]; 10233, 20 h) | MIC K. pneumonia 681 ([13]; 20 h) | MIC B. subtilis 347 ([14]; 347, 20 h) | also measured |
| --- | --- | --- | --- | --- | --- | --- | --- | --- | --- | --- | --- | --- | --- | --- | --- | --- | --- | --- | --- | --- | --- |
| CC[C@H](C)[C@H](NC(=O)[C@H](Cc1ccc(O)cc1)NC(=O)[C@@H](NC(=O)[C@@H]1CCCN1C(=O)[C@H](CCCNC(=N)N)NC(=O)[C@H](CC(N)=O)NC(=O)[C@H](CC(N)=O)NC(=O)[C@@H](N)CCCN)C(C)C)C(=O)N1CCC[C@H]1C(=O)N[C@@H](CCCN)C(=O)N1CCC[C@H]1C(=O)N[C@@H](CCCNC(=N)N)C(=O)N1CCC[C@H]1C(=O)N1CCC[C@H]1C(=O)N[C@@H](Cc1c[nH]cn1)C(=O)N1CCC[C@H]1C(=O)N[C@@H](CCCNC(=N)N)C(=O)N[C@@H](CC(C)C)C(N)=O [compound 12] (H-[Orn]NNRPVYIP[Orn]PRPPHPRL-NH2) | 15 min | 1 µg/mL (≈ 0.465 µM) | <0.5 µg/mL | 4 µg/mL (≈ 1.86 µM) | 4 µg/mL (≈ 1.86 µM) | 4 µg/mL (≈ 1.86 µM) | <0.25 µg/mL | 0.65 µg/mL (≈ 0.302 µM) | 0.98 µg/mL (≈ 0.456 µM) | 1.95 µg/mL (≈ 0.907 µM) | 0.98 to 1.95 µg/mL | 3.91 µg/mL (≈ 1.82 µM) | 7.81 µg/mL (≈ 3.63 µM) | 62.5 µg/mL (≈ 29.1 µM) |  |  |  |  |  |  |  |
| CC[C@H](C)[C@H](NC(=O)[C@H](Cc1ccc(O)cc1)NC(=O)[C@@H](NC(=O)[C@@H]1CCCN1C(=O)[C@H](CCCNC(=N)N)NC(=O)[C@H](CC(N)=O)NC(=O)[C@H](CC(N)=O)NC(=O)[C@H](CCCN)NC(C)=O)C(C)C)C(=O)N1CCC[C@H]1C(=O)N[C@@H](CCCN)C(=O)N1CCC[C@H]1C(=O)N[C@@H](CCCNC(=N)N)C(=O)N1CCC[C@H]1C(=O)N1CCC[C@H]1C(=O)N[C@@H](Cc1c[nH]cn1)C(=O)N1CCC[C@H]1C(=O)N[C@@H](CCCNC(=N)N)C(=O)N[C@@H](CC(C)C)C(N)=O [compound 13] (Ac-[Orn]NNRPVYIP[Orn]PRPPHPRL-NH2) | 15 min | 2 µg/mL (≈ 0.912 µM) | <0.5 µg/mL | 4 µg/mL (≈ 1.82 µM) | 8 µg/mL (≈ 3.65 µM) | 8 µg/mL (≈ 3.65 µM) | <0.25 µg/mL | <0.16 µg/mL | 1.95 µg/mL (≈ 0.889 µM) | 1.95 µg/mL (≈ 0.889 µM) | 1.95 µg/mL (≈ 0.889 µM) | 3.81 µg/mL (≈ 1.74 µM) | 3.91 µg/mL (≈ 1.78 µM) | 125 µg/mL (≈ 57 µM) |  |  |  |  |  |  | degradation pathway in serum (N-/C-terminal) ([1]; 25% mouse serum, metabolites by MALDI-MS): not degraded N-terminally, but only from the C-terminal end |
| CC[C@H](C)[C@H](NC(=O)[C@@H]1CCCN1C(=O)[C@H](CCCNC(=N)N)NC(=O)[C@@H]1CCCN1C(=O)[C@H](Cc1c[nH]cn1)NC(=O)[C@@H]1CCCN1C(=O)[C@@H]1CCCN1C(=O)[C@H](CCCNC(=N)N)NC(=O)[C@@H]1CCCN1C(=O)[C@H](CCCNC(=N)N)NC(=O)[C@@H]1CCCN1C(=O)[C@@H](NC(=O)[C@H](Cc1ccc(O)cc1)NC(=O)[C@@H](NC(=O)[C@@H]1CCCN1C(=O)[C@H](CCCNC(=N)N)NC(=O)[C@H](CC(N)=O)NC(=O)[C@H](CC(N)=O)NC(=O)[C@@H](N)CCCN)C(C)C)[C@@H](C)CC)C(=O)N[C@@H](CCCNC(=N)N)C(=O)N[C@H](C(=O)O)C(C)C [compound 23] (H-[Orn]NNRPVYIPRPRPPHPRPIRV-OH) | 240 min |  | 8 µg/mL (≈ 3.14 µM) | 64 µg/mL (≈ 25.1 µM) |  | 32 µg/mL (≈ 12.6 µM) | 8 µg/mL (≈ 3.14 µM) |  | 1.95 to 3.91 µg/mL |  |  |  |  |  | 8 µg/mL (≈ 3.14 µM) | 16 µg/mL (≈ 6.28 µM) | 0.65 µg/mL (≈ 0.255 µM) | 3.91 µg/mL (≈ 1.54 µM) | 62.5 µg/mL (≈ 24.5 µM) | 125 µg/mL (≈ 49.1 µM) | MIC M. luteus ATCC 10240 ([10]; ATCC 10240, 20 h): 0.12 µg/mL (≈ 0.0471 µM); MIC E. coli 1103 ([12]; 1103, 20 h): 7.81 µg/mL (≈ 3.07 µM) |
| CC[C@H](C)[C@H](NC(=O)[C@H](Cc1ccc(O)cc1)NC(=O)[C@@H](NC(=O)[C@@H]1CCCN1C(=O)[C@H](CCCNC(=N)N)NC(=O)[C@H](CC(N)=O)NC(=O)[C@H](CC(N)=O)NC(=O)[C@@H](N)CCCN)C(C)C)C(=O)N1CCC[C@H]1C(=O)N[C@@H](CCCNC(=N)N)C(=O)N1C[C@H](O)C[C@H]1C(=O)N[C@@H](CCCNC(=N)N)C(=O)N1CCC[C@H]1C(=O)N1CCC[C@H]1C(=O)N[C@@H](Cc1c[nH]cn1)C(=O)N1CCC[C@H]1C(=O)N[C@@H](CCCNC(=N)N)C(=O)N[C@@H](CC(C)C)C(N)=O [compound 45] (H-[Orn]NNRPVYIPR[Hyp]RPPHPRL-NH2) |  |  | <0.5 µg/mL | 8 µg/mL (≈ 3.62 µM) |  | 4 µg/mL (≈ 1.81 µM) | 2 µg/mL (≈ 0.906 µM) |  |  |  |  |  |  |  | 1 µg/mL (≈ 0.453 µM) | 4 µg/mL (≈ 1.81 µM) | 0.65 µg/mL (≈ 0.294 µM) | 1.95 to 3.91 µg/mL | 7.81 µg/mL (≈ 3.54 µM) | 62.5 µg/mL (≈ 28.3 µM) | MIC E. coli 1103 ([12]; 1103, 20 h): 7.81 µg/mL (≈ 3.54 µM) |
| CC[C@H](C)[C@H](NC(=O)[C@H](Cc1ccc(O)cc1)NC(=O)[C@@H](NC(=O)[C@@H]1CCCN1C(=O)[C@H](CCCNC(=N)N)NC(=O)[C@H](CC(N)=O)NC(=O)[C@H](CC(N)=O)NC(=O)[C@H](CCCN)NC(C)=O)C(C)C)C(=O)N1CCC[C@H]1C(=O)N[C@@H](CCCNC(=N)N)C(=O)N1CCC[C@H]1C(=O)N[C@@H](CCCNC(=N)N)C(=O)N1CCC[C@H]1C(=O)N1CCC[C@H]1C(=O)N[C@@H](Cc1c[nH]cn1)C(=O)N1CCC[C@H]1C(=O)N[C@@H](CCCNC(=N)N)C(=O)N[C@@H](CC(C)C)C(=O)NCC[C@H](NC(=O)[C@H](CC(C)C)NC(=O)[C@H](CCCNC(=N)N)NC(=O)[C@@H]1CCCN1C(=O)[C@H](Cc1c[nH]cn1)NC(=O)[C@@H]1CCCN1C(=O)[C@@H]1CCCN1C(=O)[C@H](CCCNC(=N)N)NC(=O)[C@@H]1CCCN1C(=O)[C@H](CCCNC(=N)N)NC(=O)[C@@H]1CCCN1C(=O)[C@@H](NC(=O)[C@H](Cc1ccc(O)cc1)NC(=O)[C@@H](NC(=O)[C@@H]1CCCN1C(=O)[C@H](CCCNC(=N)N)NC(=O)[C@H](CC(N)=O)NC(=O)[C@H](CC(N)=O)NC(=O)[C@H](CCCN)NC(C)=O)C(C)C)[C@@H](C)CC)C(=O)O [compound 83] (I: Ac-[Orn]NNRPVYIPRPRPPHPRL[Dab]-OH / II: Ac-[Orn]NNRPVYIPRPRPPHPRL; amide I:19-II:C) |  |  | 4 µg/mL (≈ 0.878 µM) | 2 µg/mL (≈ 0.439 µM) |  | 8 µg/mL (≈ 1.76 µM) | 4 µg/mL (≈ 0.878 µM) |  | 1.95 µg/mL (≈ 0.428 µM) |  |  |  |  |  | 8 µg/mL (≈ 1.76 µM) | 8 µg/mL (≈ 1.76 µM) |  | 31.25 µg/mL (≈ 6.86 µM) | 125 µg/mL (≈ 27.5 µM) | 15.6 µg/mL (≈ 3.43 µM) | half-life [1, 15]: 15 min; MIC M. luteus ATCC 10240 ([10]; ATCC 10240, 20 h): 1.95 µg/mL (≈ 0.428 µM) |
